Assay results published in ChEMBL document CHEMBL1159217, “Anti-inflammatory activity of saikosaponins from Heteromorpha trifoliata” (1995).

Legend:
Format in all cases: functional
Mus musculus [1] = test: Antiinflammatory activity in Swiss mouse assessed as inhibition of 12-O-tetradecanoylphorbol acetate-induced ear edema at 0.5 mg/ear administered tropically
Mus musculus [2] = test: Antiinflammatory activity in Swiss mouse assessed as inhibition of carrageenan-induced ear edema at 100 mg/kg, po administered 1 hr prior to carrageenan challenge measured after 3 hrs
Mus musculus [3] = test: Antiinflammatory activity in Swiss mouse assessed as inhibition of ethylphenylpropiolate-induced ear edema at 0.5 mg/ear administered tropically 16 hrs prior to ethylphenylpropiolate challenge
Mus musculus [4] = test: Antiinflammatory activity in Swiss mouse assessed as inhibition of serotonin-induced ear edema at 50 mg/kg, sc; conditions: route subcutaneous
Mus musculus [5] = test: Antiinflammatory activity in Swiss mouse assessed as inhibition of serotonin-induced ear edema at 50 mg/kg, sc in presence of actinomycin D administered simultaneously and 1.5 hrs after compound treatment for 3 hrs; set-up: scale not given: the % may be the effect or the level left; conditions: route subcutaneous
Mus musculus [6] = test: Antiinflammatory activity in Swiss mouse assessed as inhibition of serotonin-induced ear edema at 50 mg/kg, sc in presence of cycloheximide administered simultaneously and 1.5 hrs after compound treatment for 3 hrs; set-up: scale not given: the % may be the effect or the level left; conditions: route subcutaneous
Mus musculus [7] = test: Antiinflammatory activity in Swiss mouse assessed as inhibition of serotonin-induced ear edema at 50 mg/kg, sc in presence of progesterone administered 1 hr prior to compound treatment; conditions: route subcutaneous

Structure (SMILES)	inhibition (INH) (Mus musculus [1])	inhibition in vivo at 100 mg/kg (Mus musculus [2])	inhibition (INH) (Mus musculus [3])	also measured
CO[C@@H]1C=C2[C@@H]3CC(C)(C)CC[C@]3(CO)[C@@H](O)C[C@@]2(C)[C@]2(C)CC[C@H]3[C@](C)(CO)[C@@H](O[C@@H]4O[C@H](C)[C@H](O)[C@H](O[C@@H]5O[C@H](CO)[C@@H](O)[C@H](O)[C@H]5O)[C@H]4O[C@@H]4O[C@H](CO)[C@@H](O)[C@H](O)[C@H]4O)CC[C@]3(C)[C@@H]12	87%	18%		
C[C@H]1O[C@@H](O[C@H]2CC[C@@]3(C)[C@@H](CC[C@]4(C)[C@@H]3C=C[C@]35OC[C@@]6(CCC(C)(C)C[C@H]63)[C@@H](O)C[C@]54C)[C@]2(C)CO)[C@H](O[C@@H]2O[C@H](CO)[C@@H](O)[C@H](O)[C@H]2O)[C@@H](O[C@@H]2O[C@H](CO)[C@@H](O)[C@H](O)[C@H]2O)[C@H]1O [BUDDLEJASAPONIN IV]	89%	23%	59%	inhibition in vivo at 50 mg/kg (Mus musculus [4]): 48%; Activity (Mus musculus [5]): 14%; Activity (Mus musculus [6]): 14%
C[C@@H]1C[C@H]2[C@@H]3CCC4=CC(=O)C=C[C@]4(C)[C@@]3(F)[C@@H](O)C[C@]2(C)[C@@]1(O)C(=O)CO [DEXAMETHASONE]			82%	
COc1ccc2c(c1)c(CC(=O)O)c(C)n2C(=O)c1ccc(Cl)cc1 [INDOMETHACIN]	89%			
CC(=O)[C@H]1CC[C@H]2[C@@H]3CCC4=CC(=O)CC[C@]4(C)[C@H]3CC[C@]12C [PROGESTERONE]				inhibition in vivo at 50 mg/kg (Mus musculus [7]): 44%
